The target of one assay is sigma receptor. Description: Sigma receptor binding assay ([3H]DTG, guinea pig brain membrane homogenates). To be noted: displacement of [3H]DTG, guinea pig brain membranes. The protocol: Sigma Receptor Binding Assay
Briefly, frozen whole guinea-pig brains (Biotrol, Indianapolis, Ind.) were homogenized in 10 volumes (w/v) of ice-cold 320 mM sucrose using a Brinkman polytron. The homogenate was centrifuged at 1,000×g for 20 minutes at 4° C. The supernatant was centrifuged at 20,000×g for 20 minutes at 4° C. The resulting pellet was resuspended in 10 initial volumes of 50 mM Tris/HCl buffer at pH 7.4 and centrifuged at 20,000×g for 20 minutes at 4° C. The resulting pellet was resuspended in 5 initial volumes ice-cold 50 mM Tris/HCl (pH 7.4), and the final volume was adjusted to yield a protein concentration of 3 mg/ml. Aliquots of 20-ml were stored at -70° C. until used, with no detectable loss of binding.
The protein concentration in the 1-ml final incubation volume was 800 μg/ml, corresponding to 32 mg of brain tissue (original wet weight) and to a tissue concentration within the linear range for specific binding. […] Incubations were terminated after 90 minutes at room temperature by addition of 4 ml of ice-cold 50 mM Tris/HCl (pH 7.4) and rapid filtration of the membrane suspension through Whatman GF/B glass-fiber filters under vacuum, using a 48-well cell harvester (Brandel). The filters were washed 2 times with 4 ml of 50 mM Tris/HCl (pH 7.4). […] IC50 values were determined by non-linear regression analysis.

The target in the next assay is PCP receptor. In words: PCP receptor radioligand binding assay ([3H]MK-801, rat brain membranes). To be noted: read-out: [3H-MK801] IC50; displacement of [3H]MK-801, rat brain membranes.

Counter-ions that a name gives are not always drawn.

Consider `CCc1cccc(N(C)C(=N)Nc2cc(C(F)(F)F)ccc2Cl)c1` [Compd. No. 15 (Table I), N-(3-Ethylphenyl)-N-methyl-N'-(2-chloro-5-trifluoromethylphenyl)guanidine hydrochloride], for which the half-maximal inhibitory concentration (IC50) on sigma receptor stood at 120 nM; at PCP receptor it was 131 nM.

Regarding `N=C(Nc1cc(Cl)ccc1Cl)Nc1cccc2ccccc12` [Compd. No. 31 (Table I), N-(1-naphthyl)-N'-(2,5-dichlorophenyl)guanidine], the IC50 was 25 nM at sigma receptor and 41 nM on PCP receptor.

Consider `CCc1cccc(NC(=N)Nc2cccc(Cl)c2)c1` [Compd. No. 3 (Table I)], for which the IC50 at sigma receptor stood at 15.5 nM; on PCP receptor, 146 nM.

In the case of `Cc1ccc(C)c(N(C)C(=N)Nc2cccc3ccccc23)c1` [Compd. No. 54 (Table I), N-(1-Naphthyl)-N'-(2,5-dimethylphenyl)-N'-methylguanidine hydrochloride], the IC50 was 1550 nM on sigma receptor and 79 nM at PCP receptor.

Regarding `CSc1cccc(N(C)C(=N)Nc2cc(Cl)ccc2Cl)c1` [Compd. No. 62 (Table I), N-(3-Methylthiophenyl)-N-methyl-N'-(2,5-dichlorophenyl)guanidine hydrochloride], the IC50 at sigma receptor stood at 130 nM; at PCP receptor, 59.3 nM.

As to `CCc1cccc(NC(=N)Nc2cc(C(F)(F)F)ccc2Br)c1` [Compd. No. 4 (Table I), N-(3-Ethylphenyl)-N'-(2-bromo-5-trifluoromethylphenyl)guanidine hydrochloride], the 50% inhibitory concentration (IC50) was 10.3 nM on sigma receptor and 86.9 nM at PCP receptor.

For `CCc1cccc(NC(=N)Nc2cc(C(F)(F)F)ccc2F)c1` [Compound 5], the results for the IC50 on sigma receptor and at PCP receptor were 14.8 nM and 98.9 nM, respectively.

Turning to `CCc1ccc(Br)c(NC(=N)N(C)c2cccc(C(F)(F)F)c2)c1` [Compd. No. 70 (Table I), N-(3-Trifluoromethylphenyl)-N-methyl-N'-(2-bromo-5-ethylphenyl)guanidine hydrochloride], the results for the IC50 at sigma receptor and at PCP receptor were 166 nM and 20.4 nM, respectively.

As for `CCc1cccc(N(C)C(=N)Nc2cccc(Br)c2)c1` [Compd. No. 19 (Table I)], the results for the IC50 on sigma receptor and on PCP receptor were 40 nM and 105 nM, respectively.

In the case of `CCc1cccc(N(C)C(=N)Nc2cc(Br)ccc2Br)c1` [Compd. No. 11 (Table I), N-(3-ethylphenyl)-N-methyl-N'-(2,5-dibromophenyl)guanidine hydrochloride], the figures for the IC50 on sigma receptor and on PCP receptor were 40.2 nM and 47.6 nM, respectively.

In the case of `N=C(Nc1cc(C(F)(F)F)ccc1F)Nc1cccc2ccccc12` [Compd. No. 39 (Table I), N-(1-Naphthyl)-N'-(2-fluoro-5-trifluoromethylphenyl)guanidine hydrochloride], the IC50 was 79.4 nM at sigma receptor and 38.4 nM at PCP receptor.

Take `N=C(Nc1cc(C(F)(F)F)ccc1Cl)Nc1cccc2ccccc12` [Compd. No. 40 (Table I), N-(1-Naphthyl)-N'-(2-chloro-5-trifluoromethylphenyl)guanidine hydrochloride]: the results for the IC50 at sigma receptor and on PCP receptor were 52.5 nM and 38.6 nM, respectively.

`CCc1cccc(N(C)C(=N)Nc2cc(CC)ccc2Br)c1` [Compd. No. 22 (Table I), N-(3-Ethylphenyl)-N-methyl-N'-(2-bromo-5-ethylphenyl)guanidine hydrochloride]: the IC50 at sigma receptor amounted to 203 nM; at PCP receptor it was 16.7 nM.

With `CCc1cccc(NC(=N)Nc2cc(CC)ccc2F)c1` [Compd. No. 21 (Table I), N-(3-Ethylphenyl)-N'-(2-fluoro-5-ethylphenyl)guanidine hydrochloride], the figures for the IC50 at sigma receptor and on PCP receptor were 7.4 nM and 64.8 nM, respectively.

For the compound `CCc1cccc(N(C)C(=N)Nc2cc(Cl)ccc2Cl)c1` [Compd. No. 10 (Table I), N-(3-ethylphenyl)-N-methyl-N'-(2,5-dichlorophenyl)guanidine hydrochloride], the IC50 at sigma receptor is 28.5 nM; at PCP receptor it was 84.6 nM.

Regarding `CSc1ccc(Br)c(NC(=N)N(C)c2cccc(C(F)(F)F)c2)c1` [Compd. No. 69 (Table I), N-(3-Trifluoromethylphenyl)-N-methyl-N'-(2-bromo-5-methylthiophenyl)guanidine hydrochloride], the IC50 on sigma receptor was 631 nM; at PCP receptor, 5.55 nM.

For `N=C(Nc1cc(Br)ccc1Br)Nc1cccc2ccccc12` [Compd. No. 32 (Table I), N-(1-Naphthyl)-N'-(2,5-dibromophenyl)guanidine hydrochloride], the figures for the IC50 at sigma receptor and on PCP receptor were 37.6 nM and 48.6 nM, respectively.

Regarding `CCc1cccc(N(C)C(=N)Nc2cc(CC)ccc2Cl)c1` [Compd. No. 17 (Table I), N-(3-Ethylphenyl)-N-methyl-N'-(2-chloro-5-ethylphenyl)guanidine hydrochloride], the IC50 on sigma receptor is 115 nM; at PCP receptor, 53 nM.

Consider `CSc1cccc(N(C)C(=N)Nc2cc(SC)ccc2Cl)c1` [Compd. No. 60 (Table I), N-(3-Methylthiophenyl)-N-methyl-N'-(2-chloro-5-methylthiophenyl)guanidine hydrochloride], for which the IC50 was 480 nM on sigma receptor and 2.43 nM at PCP receptor.

As to `CCc1cccc(NC(=N)Nc2cccc3ccccc23)c1` [Compd. No. 45 (Table I)], the figures for the IC50 on sigma receptor and on PCP receptor were 53.8 nM and 39 nM, respectively.

Consider `CCc1cccc(NC(=N)Nc2cccc(CC)c2)c1` [Compd. No. 9 (Table I)], for which the results for the IC50 at sigma receptor and at PCP receptor were 8 nM and 168 nM, respectively.

As for `CCc1cccc(N(C)C(=N)Nc2cc(C(F)(F)F)ccc2Br)c1` [Compd. No. 13 (Table I), N-(3-Ethylphenyl)-N-methyl-N'-(2-bromo-5-trifluoromethylphenyl)guanidine hydrochloride], the values for the 50% inhibitory concentration (IC50) on sigma receptor and at PCP receptor were 208 nM and 102 nM, respectively.

In the case of `CCc1cccc(NC(=N)Nc2cc(C)ccc2Cl)c1` [Compd. No. 7 (Table I), N-(3-Ethylphenyl)-N'-(2-chloro-5-methylphenyl)guanidine hydrochloride], the IC50 on sigma receptor is 30.6 nM; on PCP receptor, 100 nM.

Take `CSc1ccc(Cl)c(NC(=N)N(C)c2cccc3cccnc23)c1` [Compound 79]: the IC50 on sigma receptor came out at 542 nM; at PCP receptor, 22.3 nM.

With `CCc1ccc(Cl)c(NC(=N)N(C)c2cccc(SC)c2)c1` [Compd. No. 61 (Table I), N-(3-Methylthiophenyl)-N-methyl-N'-(2-chloro-5-ethylphenyl)guanidine hydrochloride], the results for the IC50 on sigma receptor and on PCP receptor were 178 nM and 12.5 nM, respectively.

Take `CCc1ccc(Cl)c(NC(=N)N(C)c2cccc(C(F)(F)F)c2)c1` [Compd. No. 67 (Table I), N-(3-Trifluoromethylphenyl)-N-methyl-N'-(2-chloro-5-ethylphenyl)guanidine hydrochloride]: the IC50 at sigma receptor stood at 200 nM; on PCP receptor it was 77 nM.

For `CCc1cccc(NC(=N)Nc2cc(CC)ccc2Cl)c1` [Compd. No. 8 (Table I), N-(3-Ethylphenyl)-N'-(2-chloro-5-ethylphenyl)guanidine hydrochloride], the IC50 came to 2.04 nM on sigma receptor and 45.2 nM on PCP receptor.

As for `CSc1ccc(C(F)(F)F)cc1NC(=N)Nc1cccc2ccccc12` [Compd. No. 42 (Table I), N-(1-Naphthyl)-N'-(2-thiomethyl-5-trifluoromethylphenyl)guanidine hydrochloride], the values for the IC50 on sigma receptor and at PCP receptor were 418 nM and 170 nM, respectively.

`CN(C(=N)Nc1cccc2ccccc12)c1cc(Cl)ccc1Cl` [Compd. No. 50 (Table I), N-(1-Naphthyl)-N'(2,5-dichlorophenyl)-N'-methylguanidine hydrochloride]: the 50% inhibitory concentration (IC50) on sigma receptor came to 1320 nM; on PCP receptor it was 62 nM.

Consider `CCc1cccc(NC(=N)Nc2cc(CC)ccc2Br)c1` [Compd. No. 23 (Table I), N-(3-Ethylphenyl)-N'-(2-bromo-5-ethylphenyl)guanidine hydrochloride], for which the IC50 is 5.07 nM on sigma receptor and 38.3 nM on PCP receptor.

In the case of `Cc1cccc(NC(=N)Nc2cccc3ccccc23)c1` [Compd. No. 38 (Table I)], the IC50 on sigma receptor turned out to be 75 nM; at PCP receptor, 192 nM.

Take `CSc1ccc(Cl)c(NC(=N)N(C)c2cccc(C(F)(F)F)c2)c1` [Compd. No. 66 (Table I), N-(3-Trifluoromethylphenyl)-N-methyl-N'-(2-chloro-5-methylthiophenyl)guanidine hydrochloride]: the IC50 on sigma receptor amounted to 421 nM; on PCP receptor it was 8.47 nM.

As for `CCc1ccc(Cl)c(NC(=N)Nc2cc(C)ccc2Cl)c1` [Compd. No. 29 (Table I)], the IC50 was determined as 36.1 nM at sigma receptor and 54.7 nM at PCP receptor.

In the case of `Cc1ccc(Cl)c(N(C)C(=N)Nc2cccc3ccccc23)c1` [Compd. No. 55 (Table I), N-(1-Naphthyl)-N'-(2-chloro-5-methylphenyl)-N'-methylguanidine hydrochloride], the IC50 at sigma receptor was 2420 nM; on PCP receptor, 41 nM.

The values are drawn from patent publication US6153604A, “Therapeutic substituted guanidines” (Cambridge NeuroScience, Inc., priority 1995, dated 2000).
